Source: US6350751B1, “Therapeutic agents” (Pfizer Inc., priority 1999, dated 2002)

Tests used:
[1] = investigation of hydrate and polymorph formation of salts; assay type: physicochemical; conditions: for formation of crystalline hydrates: under a range of conditions
Excerpt: Hydrated salts can provide particular issues in processing, especially during for example the milling and/or drying stages. It has been disclosed that the tendency of organic molecules to hydrate can be predicted from their molecular structure, “Hydration in organic crystals: prediction from molecular structure”, Desiraju, Gautam R. Sch. Chem., Univ. Hyderabad, Hyderabad, 500 134, India. J. Chem. Soc., Chem. Commun. (1991), Issue 6, 426-8. CODEN: JCCCAT; ISSN: 0022-4936. (EN) CAN 114:237859. […] Several of the salts investigated form hydrates.
(§1) The problem of selecting a pharmaceutically acceptable salt form for 3-ethyl-5-[5-(4-ethylpiperazin-1-ylsulphonyl)-2-(2-methoxyethoxy) pyridin-3-yl]-2-(pyridin-2-yl)methyl-2,6-dihydro-7H-pyrazolo[4,3-d]pyrimidin-7-one has been solved by the surprising finding that the anhydrous para-toluene sulphonate salt of formula (I) meets the above criteria for a pharmaceutically acceptable salt. […] This is particularly surprising as initial predictions would indicate that the toslyate salt would form a hydrate, especially given the fact that the besylate salt and other salts investigated hydrated as predicted.
4-{6-Ethoxy-5-[3-ethyl-6,7-dihydro-7-oxo-2-(2-pyridylmethyl)-2H-pyrazolo[4,3-d]pyrimidin-5-yl]-3-pyridylsulfonyl}1-ethylpiperazine (100 g, 0.16 mol) was heated in 2-butanone/6.0% water (600 mL) to 50° C. yielding a pale yellow solution. The reaction mixture was heated to azetropically distil of 160 ml of solvent to remove water. The distilled solution was warmed to 60° C. and the acid solution of p-toluenesulfonic acid monohydrate (31.11 g, 0.16 mol) dissolved in 2-butanone (140 mL) was added over an hour. During the addition of the acid slow crystallisation was observed. The reaction mixture was slowly cooled from 60° C. to 0-5° C. over three hours, and stirred for a further hour, then filtered off the solid, washed with 2-butanone (200 mL) and dried under vacuum at 50° C. to afford the title compound (116 g, 93.7%) as a white solid. Mpt 240° C. (DMSOd6): 1.20 (6H, m), 2.23 (3H, st), 2.75 (2H, m), 2.97 (2H, q), 3.18 (4H, m), 3.35 (3H, s), 3.55 (2H, m), 3.68 (2H, m), 3.83 (2H, m), 4.59 (2H, m), 5.70 (2H, s), 7.08 (2H, d), 7.20 (1H, d), 7.34 (1H, m), 7.43 (2H, d), 7.80 (1H, m), 8.35 (1H, d), 8.70 (1H, d), 8.74 (1H, d). […] Mpt quoted +/−5° C. preferably +/−2° C. […] Additional experiments have shown that on re-slurrying in a mixture of methyl ethyl ketone and water these further polymorphs can be converted to the compound of Example 1.

[2] = stability of the salt (dosage form, drying and milling, drug substance); assay type: physicochemical
Excerpt: as §1

number of anhydrous polymorphs [1]	further polymorphs detected via differential scanning calorimetry (DSC) ([1]; under certain conditions, convertible to Example 1 form by re-slurrying in methyl ethyl ketone and water)	physical dosage form stability [2]	Compound	formation of crystalline hydrates [1]	drug substance stability profile [2]	stability during drying and milling processes [2]
at least 5			CCc1c2nc(-c3cc(S(=O)(=O)N4CCN(CC)CC4)cnc3OCCOC)[nH]c(=O)c2nn1Cc1ccccn1.O=S(=O)(O)c1ccccc1 [besylate salt, besylate salt of 3-ethyl-5-[5-(4-ethylpiperazin-1-ylsulphonyl)-2-(2-methoxyethoxy)pyridin-3-yl]-2-(pyridin-2-yl)methyl-2,6-dihydro-7H-pyrazolo [4,3-d]pyrimidin-7-one, reference compound]	a hydrated polymorph of the besylate salt is indeed formed		
	at least two further polymorphs	good physical dosage form stability	CCc1c2nc(-c3cc(S(=O)(=O)N4CCN(CC)CC4)cnc3OCCOC)[nH]c(=O)c2nn1Cc1ccccn1 [Example 1]	does not appear to form crystalline hydrates	desirable drug substance stability profile	demonstrates stability during drying and milling processes
